# Laboratory results: patent US9102752B2, “Peptide vaccine for prevention and immunotherapy of dementia of the Alzheimer's type” (United Biomedical, Inc., priority 2013, dated 2015)
# Test system: anti-Aβ antibodies in sera from vaccinated baboons
# Experiment: Epitope mapping, 10-mer peptide-based ELISA with sera from vaccinated baboons
# Conditions: peptide as plate coating
# Method: Fine specificity analyses of anti-Aβ antibodies in immunized hosts or vaccines were determined by epitope mapping.
# These nested peptides were used individually to coat microtiter wells as solid-phase immunoadsorbents for ELISA tests. The positive control ELISA plate was coated with Aβ1-28. They were tested for antibody binding with the sera from the four immunized baboons, from weeks 0, 10, 84 and 111. Baboon sera were serially diluted and assayed on plates coated with a 10-mer peptide at 5 ug/mL.
Substance,ELISA Titer titers (Log10) (0 weeks post immunization),ELISA Titer titers (Log10) (10 weeks post immunization),ELISA Titer titers (Log10) (84 weeks post immunization),ELISA Titer titers (Log10) (111 weeks post immunization)
8 (TEEISEVKMD) [Peptide 8],0.23 Log10,0.26 Log10,0.16 Log10,0.15 Log10
9 (EEISEVKMDA) [Peptide 9],0.24 Log10,0.30 Log10,0.21 Log10,0.22 Log10
10 (EISEVKMDAE) [Peptide 10],0.23 Log10,0.25 Log10,0.16 Log10,0.14 Log10
11 (ISEVKMDAEF) [Peptide 11],0.20 Log10,0.20 Log10,0.15 Log10,0.13 Log10
12 (SEVKMDAEFR) [Peptide 12],0.21 Log10,0.24 Log10,0.16 Log10,0.13 Log10
13 (EVKMDAEFRH) [Peptide 13],0.19 Log10,0.23 Log10,0.16 Log10,0.14 Log10
14 (VKMDAEFRHD) [Peptide 14],0.27 Log10,0.46 Log10,0.48 Log10,0.55 Log10
15 (KMDAEFRHDS) [Peptide 15],0.26 Log10,0.36 Log10,0.41 Log10,0.51 Log10
16 (MDAEFRHDSG) [Peptide 16],0.26 Log10,0.32 Log10,0.16 Log10,0.17 Log10
17 (AEFRHDSGYE) [Peptide 17],0.25 Log10,0.35 Log10,0.25 Log10,0.19 Log10
18 (EFRHDSGYEV) [Peptide 18],0.24 Log10,0.30 Log10,0.18 Log10,0.18 Log10
